Experimental data published in patent US20100075917A1, “THIONUCLEOSIDES AND PHARMACEUTICAL APPLICATIONS” (priority 2006, published 2010).
Read-outs that look alike come from different tables or passages of the source.

Experiments:
human Molt4/C8 cells = experiment: Cytotoxic effect on Molt4/C8 cells; type: cell-based; details: Tables 5 and 7, Molt4/C8 cells
[1] = test system: FM3A/0 murine mammary carcinoma cells; experiment: Cytotoxic effect on FM3A/0 cells; type: cell-based; design: unit not given beside the values; details: Tables 5 and 7, FM3A/0 cells
Moloney sarcoma virus = experiment: Inhibition of transformation of mouse embryo C3H/3T3 cells induced by Moloney sarcoma virus; type: cell-based; design: MIC (minimum inhibitory concentration): unit not given here; details: for MIC (minimum inhibitory concentration): C3H/3T3 cells, a second bound is given in brackets for some compounds
From the text: 2.2. Inhibitory Effect on the Transformation of Mouse Embryo C3H/3T3 Cells Induced by Moloney Sarcoma Virus (Model of Infection with HIV)

[2] = test system: L1210/0 murine leukemia cells; experiment: Cytotoxic effect on L1210/0 cells; type: cell-based; details: Tables 5 and 7, L1210/0 cells
HeLa cells = experiment: Cytotoxic effect on HeLa cells; type: cell-based; design: unit not given beside the values; details: Tables 5 and 7, HeLa cells
human CEM T4 lymphocytes = experiment: Cytotoxic effect on CEM T4 lymphocytes; type: cell-based; design: unit not given beside the values; details: Tables 5 and 7, CEM cells
human CEM cells = experiment: Cytotoxicity (MTT) on CEM cells; type: cell-based; details: CCRF-CEM; for EC50: Tables 4 and 6, CEM cells, some values 'then plateau'; for CC50: read-out: CC50 CEM
Procedure: (§1) The cytotoxic effect of a compound is studied on human CEM cells and MCF-7 mammary carcinoma cells that are or are not resistant to gemcitabine, which is an anticancer nucleoside used in chemotherapy.
(§2) The cytotoxicity (CC50) was estimated by measuring the reduction of 3-(4,5-dimethylthiazol-2-yl)-2,5-diphenyltetrazolium bromide (MTT), which is converted into insoluble violet formazan. To do this, 100 000 cells (human CEM-SS or MCF-7 lines) are inoculated per well in 100 μl of culture medium, in 96-well microtitration plates. After 24 hours, the test products are added in 100 μl and incubation is continued for 48 to 72 hours. MIT is then added in a proportion of 20 μl of a solution at 5 mg/ml in PBS. Three hours later, 100 μl of a DMF/acetic acid/HCl/SDS (sodium dodecyl sulfate) solution are added. After 3 hours at 37° C., the absorbance of the formazan is measured at 590 nm and compared with that of the untreated control.

HIV-2 [3] = experiment: Anti-HIV-2 effect in CEM/TK− cells; type: cell-based; details: Human immunodeficiency virus 2, CEM-TK(-); Third Series; CEM cells having no thymidine kinase activity
Procedure: (§3) The evaluation test is described in Roy, B.; Chambert, S.; Lepoivre M.; Aubertin, A.-M.; Balzarini, J.; Décout, J.-L., Deoxyribonucleoside 2′- or 3′-mixed disulfides: prodrugs to target ribonucleotide reductase and/or to inhibit HIV reverse transcription. J. Med. Chem. 2003, 46, 2565-2568.
(§4) The toxicity and the antiviral activities were measured at different concentrations, and their evolution as a function of the concentration makes it possible to evaluate: • the concentration at which 50% of the cells are dead in the absence of virus (CC 50) for each of the test compounds, from the change in absorbance at 540 nm of formazan as a function of the concentration of test compound, • the concentration of compound that leads to a 50% reduction in the activity of viral reverse transcriptase (EC 50). This concentration is determined from the curve representing the change in the percentage of “remaining reverse transcriptase” activity (defined as being the ratio of the activity of the reverse transcriptase in the presence of the test compound to that of the untreated cells) as a function of the concentration of test compound.
(§5) EC50: concentration required to afford 50% protection to the CEM cells against the cytopathogenicity of HIV;
• Effect in CEM not expressing thymidine kinase activity (CEM/TK^−, cells having no thymidine kinase activity).

HIV-1 = experiment: Anti-HIV-1 effect in CEM cells; type: cell-based
Procedure: as §3, §4, §5

HIV-2 [4] = experiment: Anti-HIV-2 effect in CEM cells; type: cell-based; details: CEM cells, read-out: EC50 HIV-2
Procedure: as §3, §4, §5

[5] = test system: MCF-7 mammary carcinoma cells; experiment: Cytotoxicity (MTT) on MCF-7 cells; type: cell-based, human; details: for CC50: Homo sapiens, MCF7, read-out: CC50 MCF-7
Procedure: as §1, §2

[6] = transformation of C3H/3T3 cells induced by Moloney sarcoma virus, read-out: EC50 (effective concentration 50%)
[7] = Human immunodeficiency virus 1, CCRF-CEM, Third Series, read-out: EC50 HIV-1
[8] = Human immunodeficiency virus 2, CCRF-CEM, Third Series

Cc1cn(C2OC(CO)C=C2SSc2ccc([N+](=O)[O-])cc2)c(=O)[nH]c1=O (stereo not shown) [Compound 14, 2′,3′-didehydro-2′,3′-dideoxythymidin-2′-yl 4-nitrophenyl disulfide]
cytotoxic effect, Molt4/C8 (human Molt4/C8 cells): 12 ± 5 | cytotoxic effect, FM3A/0 [1]: 39 ± 3 | MIC (minimum inhibitory concentration) (Moloney sarcoma virus): 100 | EC50 (Moloney sarcoma virus; [6]): 15 µM | cytotoxic effect, L1210/0 [2]: 31 ± 3 | cytotoxic effect, HeLa (HeLa cells): 7.4 ± 1.6 | cytotoxic effect, CEM (human CEM T4 lymphocytes): 31 ± 1

Cc1cn([C@H]2C[C@H](SSc3ccc([N+](=O)[O-])cc3)[C@@H](CO)O2)c(=O)[nH]c1=O [Compound 25, 3′-deoxythymidin-3′-yl 4-nitrophenyl disulfide]
cytotoxic effect, Molt4/C8 (human Molt4/C8 cells): 29 ± 2 | cytotoxic effect, FM3A/0 [1]: 148 ± 16 | MIC (minimum inhibitory concentration) (Moloney sarcoma virus): 20 | EC50 (Moloney sarcoma virus; [6]): 0.89 ± 0.36 µM | cytotoxic effect, L1210/0 [2]: 32 ± 3 | cytotoxic effect, HeLa (HeLa cells): 28 ± 12 | cytotoxic effect, CEM (human CEM T4 lymphocytes): 34 ± 0

CSS[C@H]1C[C@H](n2cc(Br)c(=O)[nH]c2=O)O[C@@H]1CO [Compound 23, 5-Bromo-2′,3′-dideoxyuridin-3′-yl methyl disulfide]
EC50 (human CEM cells; Homo sapiens): 66 µM

Cc1cn([C@@H]2O[C@H](CO)C=C2SSC(Cl)(Cl)Cl)c(=O)[nH]c1=O [Compound 12, 2′,3′-didehydro-2′,3′-dideoxythymidin-2′-yl trichloromethyl disulfide]
EC50 (human CEM cells; Homo sapiens): 46 µM

CSC1=C[C@@H](CO)O[C@H]1n1ccc(=O)[nH]c1=O [Compound 31, 2′,3′-didehydro-2′,3′-dideoxy-2′-methylthiouridine]
EC50 (HIV-2 [3]): > 10 µM | EC50 (HIV-1; [7]): ≥ 10 µM | EC50 (HIV-2 [4]; [8]): 6.5 ± 0.7 µM

C[Si](C)(C)CC[S+]([O-])C1=C[C@@H](CO)O[C@H]1n1ccc(=O)[nH]c1=O (stereo partly shown) [Compound 8, 2′,3′-Didehydro-2′,3′-dideoxy-2′-(2-trimethylsilyl)ethylthiouridine sulfoxide]
CC50 (human CEM cells; Homo sapiens): > 200 µM

C[C@H](Cn1cnc2c(N)ncnc21)OCP(=O)(O)O [Tenofovir, reference compound]
EC50 (HIV-1; First and Second Series, first table, read-out: EC50 HIV-1): 5.5 µM | EC50 (HIV-2 [4]; First and Second Series, first table): 2.6 µM

(R)-PMEA [reference compound]
MIC (minimum inhibitory concentration) (Moloney sarcoma virus): >10 | EC50 (Moloney sarcoma virus; [6]): 0.23 ± 0.03 µM

CSS[C@H]1C[C@H](n2ccc(N)nc2=O)O[C@@H]1CO [Compound 19, 2′,3′-Dideoxycytidin-3′-yl methyl disulfide]
EC50 (human CEM cells; Homo sapiens): > 200 µM | EC50 (HIV-2 [3]): 45 ± 21 µM | EC50 (Moloney sarcoma virus; C3H/3T3, read-out: EC50 (effective concentration 50%)): 48 ± 2 µM | MIC (minimum inhibitory concentration) (Moloney sarcoma virus): >100 | EC50 (HIV-1; [7]): 20 ± 7 µM | EC50 (HIV-1; Human immunodeficiency virus 1, CCRF-CEM, read-out: EC50 HIV-1, First and Second Series, first table): 3.3 ± 2.3 µM | EC50 (HIV-2 [4]; Human immunodeficiency virus 2, CCRF-CEM, First and Second Series, first table): 10.5 ± 9.3 µM | EC50 (HIV-2 [4]; [8]): 20 ± 7 µM

Cc1cn([C@H]2C[C@H](SSCCCCCCO)[C@@H](CO)O2)c(=O)[nH]c1=O [Compound 30, 3′-deoxythymidin-3′-yl 6-hydroxyhexyl disulfide]
EC50 (HIV-2 [3]): > 10 µM | EC50 (HIV-1; [7]): 3 µM | EC50 (HIV-2 [4]; [8]): 4.5 ± 2.1 µM

Cc1cn([C@@H]2O[C@H](CO)C=C2SSc2ccccc2[N+](=O)[O-])c(=O)[nH]c1=O [Compound 11]
EC50 (human CEM cells; Homo sapiens): > 200 µM

Cc1cn([C@@H]2O[C@H](CO)C=C2[S+]([O-])CC[Si](C)(C)C)c(=O)[nH]c1=O (stereo partly shown) [Compound 6, 2′,3′-Didehydro-2′,3′-dideoxy-2′-(2-trimethylsilyl)ethylthiothymidine sulfoxide]
CC50 (human CEM cells; Homo sapiens): > 200 µM

C[Si](C)(C)CCSC1=C[C@@H](CO)O[C@H]1n1ccc(N)nc1=O [Compound 5, 2′,3′-Didehydro-2′,3′-dideoxy-2′-(2-trimethylsilyl)ethylthiocytidine]
CC50 (human CEM cells; Homo sapiens): 217 µM | cytotoxicity at 200 μM, MCF-7 [5]: 41%

Cc1cn([C@H]2C=C(SCC[Si](C)(C)C)[C@@H](CO)O2)c(=O)[nH]c1=O [Compound 4, 2′,3′-didehydro-2′,3′-dideoxy-3′-(2-trimethylsilyl)ethylthiothymidine]
CC50 (human CEM cells; Homo sapiens): 82 µM | cytotoxicity at 200 μM, MCF-7 [5]: 33%

O=c1ccn([C@@H]2O[C@H](CO)C=C2SSc2ccccc2[N+](=O)[O-])c(=O)[nH]1 [Compound 17, 2′,3′-didehydro-2′,3′-dideoxyuridin-2′-yl 2-nitrophenyl disulfide]
cytotoxic effect, Molt4/C8 (human Molt4/C8 cells): 42 ± 1 | EC50 (HIV-2 [3]): > 10 µM | cytotoxic effect, FM3A/0 [1]: 206 ± 25 | cytotoxic effect, L1210/0 [2]: 43 ± 5 | EC50 (HIV-1; [7]): 6.5 ± 4.9 µM | cytotoxic effect, HeLa (HeLa cells): 29 ± 9 | cytotoxic effect, CEM (human CEM T4 lymphocytes): 40 ± 4 | EC50 (HIV-2 [4]; [8]): ≥ 10 µM

Cc1cn([C@H]2C[C@H](SSc3ccccc3[N+](=O)[O-])[C@@H](CO)O2)c(=O)[nH]c1=O [Compound 26, 3′-deoxythymidin-3′-yl 2-nitrophenyl disulfide]
cytotoxic effect, Molt4/C8 (human Molt4/C8 cells): 31 ± 5 | cytotoxic effect, FM3A/0 [1]: 220 ± 19 | MIC (minimum inhibitory concentration) (Moloney sarcoma virus): 20 | EC50 (Moloney sarcoma virus; [6]): 1.1 ± 0.8 µM | cytotoxic effect, L1210/0 [2]: 33 ± 7 | cytotoxic effect, HeLa (HeLa cells): 15 ± 0 | cytotoxic effect, CEM (human CEM T4 lymphocytes): 32 ± 1

Cc1cn(C2OC(CO)C=C2SSc2ccccc2[N+](=O)[O-])c(=O)[nH]c1=O (stereo not shown) [Compound 15, 2′,3′-didehydro-2′,3′-dideoxythymidin-2′-yl 2-nitrophenyl disulfide]
cytotoxic effect, Molt4/C8 (human Molt4/C8 cells): 30 ± 15 | cytotoxic effect, FM3A/0 [1]: 175 ± 30 | MIC (minimum inhibitory concentration) (Moloney sarcoma virus): 100 | EC50 (Moloney sarcoma virus; [6]): 8.3 ± 0.4 µM | cytotoxic effect, L1210/0 [2]: 42 ± 3 | cytotoxic effect, HeLa (HeLa cells): 31 ± 1 | cytotoxic effect, CEM (human CEM T4 lymphocytes): 28 ± 0

Cc1cn([C@@H]2O[C@H](CO)C=C2S(=O)(=O)CC[Si](C)(C)C)c(=O)[nH]c1=O [Compound 7, 2′,3′-Didehydro-2′,3′-dideoxy-2′-(2-trimethylsilyl)ethylthiothymidine sulfone]
CC50 (human CEM cells; Homo sapiens): 63 µM | CC50 [5]: 120 µM

O=c1ccn([C@@H]2O[C@H](CO)C=C2SSc2ccc([N+](=O)[O-])cc2)c(=O)[nH]1 [Compound 16, 2′,3′-didehydro-2′,3′-dideoxyuridin-2′-yl 4-nitrophenyl disulfide]
cytotoxic effect, Molt4/C8 (human Molt4/C8 cells): 28 ± 10 | EC50 (HIV-2 [3]): 32.5 ± 25 µM | cytotoxic effect, FM3A/0 [1]: 45 ± 2 | cytotoxic effect, L1210/0 [2]: 42 ± 4 | EC50 (HIV-1; [7]): 37.5 ± 17.7 µM | cytotoxic effect, HeLa (HeLa cells): 16 ± 2 | cytotoxic effect, CEM (human CEM T4 lymphocytes): 41 ± 1 | EC50 (HIV-2 [4]; [8]): 9.5 ± 7.8 µM

Nc1ncnc2c1ncn2CCOCP(=O)(O)O [PMEA, reference compound]
EC50 (Moloney sarcoma virus; [6]): 0.53 ± 0.13 µM

CC(C)CCSC1=C[C@@H](CO)O[C@H]1n1ccc(=O)[nH]c1=O [Compound 2]
CC50 (human CEM cells; Table 3, MTT, human CEM cells): > 200 µM | CC50 [5]: > 200 µM
